In patent publication US20250099482A1, “TIP60 NEURO-EPIGENETIC MODULATORS” (Drexel University, priority 2023, published 2025):
Entries after “also recorded” stand apart in the source; their conditions may differ.

Tests used:
purified p300 HAT = purified p300 HAT (Homo sapiens, UniProt Q09472); assay: In vitro histone acetylation activity assay (p300); format: biochemical; settings: HAT assays, 20 μM
[1] = tested on: Drosophila Alzheimer's disease model (APP); assay: Larval line crossing assay in APP Alzheimer's disease model; format: in vivo; settings: 3rd instar APP larvae, compound in fly food, range of concentrations
[2] = tested on: Drosophila Alzheimer's disease model (APP); assay: Eclosion assay (lethality) in APP Alzheimer's disease model; format: in vivo; settings: compound in fly food
Description: All fly lines were raised on standard yeast Drosophila medium (Applied Scientific Jazz Mix Drosophila Food, Thermo Fischer Scientific) at 25° C. with 12/12-h light/dark cycle. The pan-neuronal driver elav^C155-Gal4, transgenic Tip60-RNAi-mediated knock-down (UAS-Tip60 RNAi) and the transgenic UAS lines carrying human APP 695 isoform (UAS-APP) were obtained from Bloomington Drosophila Stock Center. For neural Tip60 knockdown and APP expression, the elav^C155-Gal4 driver line was crossed with UAS-Tip60RNAi or UAS-APP and the progeny was collected as Tip60 knockdown model (elav^C155-Gal4/UAS-Tip60 RNAi) or APP associated AD model (elav^C155-Gal4/UAS-APP). For wild-type control, the elav^C155-Gal4 driver line was crossed with itself. Model validation was performed by confirming reduced Tip60 mRNA levels in Tip60 RNAi model as compared to wildtype using real-time PCR.
Compounds were synthesized by Enamine, Princeton Molecular and ChemBridge. […]
The P10 and P13 compound's functional effectiveness in rescuing AD associated lethality that occurs as a culmination of later stage neurodgenerative progression was assessed using an eclosion assay (FIG. 9C). Briefly, larvae were reared on food either with compounds dissolved in DMSO or without compounds (DMSO vehicle) and the number of flies that eclosed from their pupal cases over a 7 day period were counted.

[3] = tested on: Drosophila Tip60 knockdown model; assay: Larval line crossing / reaching the wall assay in Tip60-RNAi knockdown model; format: in vivo; settings: for rescue of Tip60 knockdown induced locomotion deficits (line crossing in 30 seconds): 3rd instar Tip60-RNAi larvae, compound in fly food
Tip60 = target: T1, Tip60 (Homo sapiens, UniProt Q92993); assay: In vitro histone acetylation activity assay (Tip60); format: biochemical; settings: 20 μM compound, vs Tip60+DMSO
T1 construct: purchased Active Motif 81975
Description: HAT assays were performed according to manufacturer's instructions in HAT Assay Kit (Active Motif 56100). Briefly, 375 ng Tip60 protein (Active motif: 81975) was incubated with 50 μM Histone H4 peptide, 50 μM Acetyl-CoA and indicated drug concentrations for 30 minutes at room temperature. After stopping the reaction and developing free sulfhydryl groups, […] was recorded at excitation 360-390 nm and emission 460-490 nm using Glomax fluorescence microplate reader. Specific enzyme activity (pmol/min/μg) was calculated by 1. Subtracting background fluorescence from that of assay samples to obtain arbitrary fluorescence units (AFU); and (2) Dividing the difference by the incubation time to obtain AFU/minute. 3. Dividing the AFU/minute by the slope of standard curve in AFU/pmol to obtain the rate in pmol/minute. 4. Dividing pmol/min by the amount of enzyme used to obtain final readings in pmol/minute/μg.

T1 sequence (Q92993 whole entry): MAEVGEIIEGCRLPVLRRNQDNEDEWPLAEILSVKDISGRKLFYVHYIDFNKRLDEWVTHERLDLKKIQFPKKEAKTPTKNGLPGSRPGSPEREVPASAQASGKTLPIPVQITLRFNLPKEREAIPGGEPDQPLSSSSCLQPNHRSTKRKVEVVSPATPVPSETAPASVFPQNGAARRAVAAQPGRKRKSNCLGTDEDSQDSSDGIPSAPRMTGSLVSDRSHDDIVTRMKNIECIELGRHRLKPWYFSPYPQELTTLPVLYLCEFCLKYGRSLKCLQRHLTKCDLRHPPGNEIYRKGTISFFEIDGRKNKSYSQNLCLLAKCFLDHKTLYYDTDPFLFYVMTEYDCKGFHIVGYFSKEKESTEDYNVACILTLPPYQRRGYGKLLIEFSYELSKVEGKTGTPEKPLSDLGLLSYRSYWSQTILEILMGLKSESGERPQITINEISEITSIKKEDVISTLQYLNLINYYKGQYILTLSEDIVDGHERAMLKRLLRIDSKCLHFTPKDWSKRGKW
Chain of purified p300 HAT (Q09472 whole entry, species assumed): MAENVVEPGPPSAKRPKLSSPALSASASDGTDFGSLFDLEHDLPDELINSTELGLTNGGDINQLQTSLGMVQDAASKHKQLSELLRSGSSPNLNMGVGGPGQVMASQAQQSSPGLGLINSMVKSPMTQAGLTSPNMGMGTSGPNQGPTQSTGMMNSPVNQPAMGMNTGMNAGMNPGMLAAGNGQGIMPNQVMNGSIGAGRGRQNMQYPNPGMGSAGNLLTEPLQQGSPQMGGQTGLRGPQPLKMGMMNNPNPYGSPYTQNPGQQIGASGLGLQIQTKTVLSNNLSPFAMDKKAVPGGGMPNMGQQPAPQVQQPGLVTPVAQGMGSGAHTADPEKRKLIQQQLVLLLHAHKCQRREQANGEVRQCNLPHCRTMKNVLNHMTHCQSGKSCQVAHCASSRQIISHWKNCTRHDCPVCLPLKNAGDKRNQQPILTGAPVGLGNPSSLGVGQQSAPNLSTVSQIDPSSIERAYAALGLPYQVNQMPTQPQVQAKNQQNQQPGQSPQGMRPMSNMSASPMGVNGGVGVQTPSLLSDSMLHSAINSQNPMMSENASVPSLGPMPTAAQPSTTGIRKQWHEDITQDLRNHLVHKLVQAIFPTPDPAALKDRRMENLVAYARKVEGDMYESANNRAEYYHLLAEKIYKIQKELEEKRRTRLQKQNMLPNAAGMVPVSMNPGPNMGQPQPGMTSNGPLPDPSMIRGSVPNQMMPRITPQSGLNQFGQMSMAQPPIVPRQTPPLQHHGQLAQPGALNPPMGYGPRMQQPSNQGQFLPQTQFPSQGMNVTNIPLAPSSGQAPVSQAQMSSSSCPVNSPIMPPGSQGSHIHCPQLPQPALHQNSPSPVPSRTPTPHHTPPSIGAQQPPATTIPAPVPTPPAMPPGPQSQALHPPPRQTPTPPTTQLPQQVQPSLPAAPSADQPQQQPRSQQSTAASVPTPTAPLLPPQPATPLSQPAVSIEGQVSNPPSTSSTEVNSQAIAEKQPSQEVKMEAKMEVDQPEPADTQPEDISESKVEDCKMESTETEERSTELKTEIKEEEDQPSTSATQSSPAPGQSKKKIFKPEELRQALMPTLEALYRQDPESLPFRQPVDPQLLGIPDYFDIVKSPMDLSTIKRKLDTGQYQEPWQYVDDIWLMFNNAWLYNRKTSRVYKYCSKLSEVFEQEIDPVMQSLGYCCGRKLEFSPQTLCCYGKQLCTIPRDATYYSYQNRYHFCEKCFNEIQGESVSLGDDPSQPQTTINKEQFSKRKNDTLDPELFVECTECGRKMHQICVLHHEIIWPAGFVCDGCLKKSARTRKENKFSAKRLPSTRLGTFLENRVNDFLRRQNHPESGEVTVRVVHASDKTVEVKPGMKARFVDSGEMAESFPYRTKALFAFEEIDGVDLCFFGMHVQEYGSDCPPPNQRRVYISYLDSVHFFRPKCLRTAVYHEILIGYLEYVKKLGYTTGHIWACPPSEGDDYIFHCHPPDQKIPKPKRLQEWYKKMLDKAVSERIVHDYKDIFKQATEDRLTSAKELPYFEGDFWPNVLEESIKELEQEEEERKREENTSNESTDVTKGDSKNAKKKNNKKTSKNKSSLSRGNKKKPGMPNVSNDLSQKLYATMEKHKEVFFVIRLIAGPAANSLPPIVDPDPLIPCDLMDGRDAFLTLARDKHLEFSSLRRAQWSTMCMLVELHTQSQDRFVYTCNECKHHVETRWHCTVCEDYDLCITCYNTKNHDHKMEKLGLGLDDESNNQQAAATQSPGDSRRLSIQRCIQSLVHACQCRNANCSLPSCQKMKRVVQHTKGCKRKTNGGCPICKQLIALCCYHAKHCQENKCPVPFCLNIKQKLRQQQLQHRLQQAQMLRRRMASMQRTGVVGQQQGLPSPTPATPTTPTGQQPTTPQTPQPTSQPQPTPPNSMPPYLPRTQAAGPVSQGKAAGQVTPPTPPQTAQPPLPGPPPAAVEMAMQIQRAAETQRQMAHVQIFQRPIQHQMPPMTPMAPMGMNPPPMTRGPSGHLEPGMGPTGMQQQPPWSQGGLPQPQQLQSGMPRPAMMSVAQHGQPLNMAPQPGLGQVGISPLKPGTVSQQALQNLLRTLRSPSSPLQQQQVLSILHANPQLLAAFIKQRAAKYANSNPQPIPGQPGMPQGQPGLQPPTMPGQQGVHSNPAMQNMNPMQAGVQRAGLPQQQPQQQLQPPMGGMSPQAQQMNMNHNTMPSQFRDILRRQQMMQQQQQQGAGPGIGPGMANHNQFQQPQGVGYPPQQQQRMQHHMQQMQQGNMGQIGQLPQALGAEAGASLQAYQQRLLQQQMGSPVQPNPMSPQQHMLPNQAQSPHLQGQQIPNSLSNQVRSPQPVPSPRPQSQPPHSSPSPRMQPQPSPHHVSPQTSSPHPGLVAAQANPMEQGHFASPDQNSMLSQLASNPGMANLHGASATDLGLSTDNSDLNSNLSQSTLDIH

SMILES	specificity for Tip60 over p300 (purified p300 HAT)	rescue of AD associated locomotion defects (line crossing, reaching wall) [1]	rescue of AD associated lethality (flies eclosed over 7 day period) [2]	rescue of Tip60 knockdown induced locomotion deficits (line crossing in 30 seconds) [3]	effect on Tip60's HAT activity (Histone H4 acetylation, fluorescence) (Tip60)	ability of larvae to cross plate and reach the wall ([3]; 1 μM drug concentration)	restoration of locomotor activity (line crossing) ([3]; 1 μM drug concentration)
Cc1nc2c(cnn2C(C)C)cc1C(=O)NCc1ccc([C@H](C)O)c(C)n1 [Compound P10, (S)-N-((5-(1-hydroxyethyl)-6-methylpyridin-2-yl)methyl)-1-isopropyl-6-methyl-1H-pyrazolo[3,4-b]pyridine-5-carboxamide]	highest specificity for Tip60 over p300	consistent and robust rescue	significant rescue of lethality	rescue locomotor speed defect	enhanced Tip60's HAT activity; also recorded: highest level of Tip60 HAT activation		
CC(=O)Nc1cccc(CNC(=O)c2cnc3ccccc3c2C(F)(F)F)c1 [Compound P13, N-(3-acetamidobenzyl)-4-(trifluoromethyl)quinoline-3-carboxamide]	highest specificity for Tip60 over p300	consistent and robust rescue	significant rescue of lethality; also recorded: more robust effects	rescue locomotor speed defect	enhanced Tip60's HAT activity; also recorded: highest level of Tip60 HAT activation	improved the performance of larvae in reaching the wall	best performer in restoring locomotor activity to wild-type levels
